Test results published in patent publication US20240182460A1, “ALLOSTERIC CHROMENONE INHIBITORS OF PHOSPHOINOSITIDE 3-KINASE (PI3K) FOR THE TREATMENT OF DISEASE” (PETRA PHARMA CORPORATION, priority 2022, published 2024).

Target: PI3Kα E545K (Homo sapiens, UniProt P42336, E545K)
Experiment: PI3Kα E545K mutant in vitro cell based assay, MDA-MB-361 cells
Design: MDA-MB-361 (ATCC-HTB-27) cell line (PI3Kα E545K); host or cells: MDA-MB-361
Conditions: MDA-MB-361 cell line, 0% FBS, no insulin, 3 hours treatment
Excerpt: PI3K-Alpha Kinase (PI3Kα) Activity: Wild-Type PI3Kα, H1047R Mutant PI3Kα, and E545K Mutant PI3Kα In Vitro Cell Based Assays and Determination of IC50 Values for Inhibitors
The MDA-MB-453 (ATCC-HTB-131) cell line (PI3Kα H1047R) and MCF-7 (ATCC-HTB-22) cell line (PI3Kα E545K), MDA-MB-361 (ATCC-HTB-27) cell line (PI3Kα E545K), and SKBR3 (ATCC-HTB-30) cell line (wild type PI3Kα) were obtained from the American Type Culture Collection (Manassas, VA). MDA-MB-453 cells were maintained in Dulbecco's Modified Eagle Media (DMEM, Gibco 12430) supplemented with 10% Fetal Bovine Serum, heat inactivated (FBS HI, Gibco 10082), 1× non-essential amino acids (NEAA, Gibco 11140), 1 mM sodium pyruvate (Gibco 11360) and 1× Anti-Anti (Gibco 15240). MCF-7 cells were maintained in Minimum Essential Media (MEM) (Gibco 11095) supplemented with 10% Fetal Bovine Serum, heat inactivated (FBS HI, Gibco 10082), 1× non-essential amino acids (NEAA, Gibco 11140), 1 mM sodium pyruvate (Gibco 11360), 1× Anti-Anti (Gibco 15240) and 10 μg/mL human insulin (Sigma I 9278). MDA-MB-361 cells were maintained in Dulbecco's Modified Eagle Media (DMEM, Gibco 12430) supplemented with 20% Fetal Bovine Serum, heat inactivated (FBS HI, Gibco 10082), 1× non-essential amino acids (NEAA, Gibco 11140), 1 mM sodium pyruvate (Gibco 11360) and 1× Anti-Anti (Gibco 15240). SKBR3 cells were maintained in McCoy's 5A (Gibco 16600) supplemented with 10% Fetal Bovine Serum, heat inactivated (FBS HI, Gibco 10082), and 1× Anti-Anti (Gibco 15240). Cultures were maintained in a humidified incubator at 37° C. under 5% CO2/95% air.
For compound testing in 0% FBS, MDA-MB-453, MCF-7 and SKBR3 cells were seeded at a density of 1.5×10^4, 1.0×10^4, and 1.0×10^4 cells, respectively, per well in white 384-well plates in 20 μl of Minimum Essential Media (MEM) assay media with 1×NEAA, 1 mM sodium pyruvate, and 1 μg/mL human insulin (Sigma 19278) (Assay Medium); while MDA-MB-361 cells were seeded at a density of 1.5×10^4 per well in white 384-well plates in 20 μl Assay Medium without insulin. After plating, cells were allowed to attach overnight. Compounds dissolved in 10 mM stock solutions in DMSO were serially diluted 1:3 in DMSO to generate a 10-point dilution series and plated using an acoustic liquid handler system (Echo 550 Series Liquid Handler, Labcyte). A 5× intermediate compound dilution plate in MEM with 1×NEAA and 1 mM sodium pyruvate (150 μM starting compound concentration in 1.5% DMSO) was then prepared. Five μl of the intermediate serially diluted compounds were added to the cell plate to final concentrations ranging from […] in 0.3% DMSO. 0.3% DMSO alone was used to establish the maximum (MAX) signal and GDC-0032 at a final concentration of 1 μM was used as a reference compound for the minimum (MIN) signal. After 3 hours treatment, the medium was removed, and the cells were lysed in 10 μL of 1× SureFire Lysis buffer with shaking for 10 minutes at room temperature. The Acceptor Mix (Reaction Buffer 1+Reaction Buffer 2+Activation Buffer+SureFire Ultra Acceptor Beads) was prepared by diluting Activation buffer 25-fold in combined Reaction Buffer 1 and Reaction Buffer 2.
The Acceptor beads were diluted 50-fold in the combined Reaction Buffers. Five μL of Acceptor Mix was added to each well, the plate was sealed and covered with foil and incubated for 1 hour at room temperature. The Donor Mix (dilution buffer+SureFire Ultra Donor Beads) was prepared by diluting Donor Beads 50-fold in dilution buffer. Five μL of the Donor Mix was added to each well and the plate sealed and covered with foil and incubated for 1-2 hours at room temperature in the dark. The plates were read on a Neo2 plate reader instrument from Biotek using standard AlphaLisa settings.
Compounds were tested in duplicate and the % inhibition at each compound concentration was used to generate two dose response curves. One IC50 was generated using average % inhibition at each compound concentration. […]

Chain of PI3Kα E545K (P42336 whole entry E545K): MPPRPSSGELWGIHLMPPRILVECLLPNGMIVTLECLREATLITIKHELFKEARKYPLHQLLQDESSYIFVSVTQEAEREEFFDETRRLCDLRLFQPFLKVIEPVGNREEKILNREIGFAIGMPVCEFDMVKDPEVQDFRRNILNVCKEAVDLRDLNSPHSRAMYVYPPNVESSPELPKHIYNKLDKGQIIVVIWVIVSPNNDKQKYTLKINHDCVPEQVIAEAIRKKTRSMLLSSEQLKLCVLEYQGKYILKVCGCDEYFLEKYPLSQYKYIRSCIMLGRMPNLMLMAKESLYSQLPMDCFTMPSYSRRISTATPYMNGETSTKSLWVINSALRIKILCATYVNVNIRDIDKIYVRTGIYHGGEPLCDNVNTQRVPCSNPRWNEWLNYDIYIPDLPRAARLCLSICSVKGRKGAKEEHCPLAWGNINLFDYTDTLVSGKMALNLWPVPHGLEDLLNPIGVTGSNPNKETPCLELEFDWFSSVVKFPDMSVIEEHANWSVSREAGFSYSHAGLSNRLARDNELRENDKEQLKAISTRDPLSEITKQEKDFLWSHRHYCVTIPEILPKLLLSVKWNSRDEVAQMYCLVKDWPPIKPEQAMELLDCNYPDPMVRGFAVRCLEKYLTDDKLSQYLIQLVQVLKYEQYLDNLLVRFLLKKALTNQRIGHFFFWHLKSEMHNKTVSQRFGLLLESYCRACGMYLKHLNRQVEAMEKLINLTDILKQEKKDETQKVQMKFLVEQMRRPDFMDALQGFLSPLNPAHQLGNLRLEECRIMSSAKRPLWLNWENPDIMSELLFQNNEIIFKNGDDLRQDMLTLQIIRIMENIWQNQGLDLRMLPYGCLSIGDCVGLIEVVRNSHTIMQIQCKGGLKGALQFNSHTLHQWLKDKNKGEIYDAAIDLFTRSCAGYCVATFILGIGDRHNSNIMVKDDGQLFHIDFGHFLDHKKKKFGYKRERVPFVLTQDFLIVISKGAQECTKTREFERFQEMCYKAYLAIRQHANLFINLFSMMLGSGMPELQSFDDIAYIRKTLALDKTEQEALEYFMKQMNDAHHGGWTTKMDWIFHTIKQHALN
Chain of PI3Kα E545K (P27986 whole entry partner): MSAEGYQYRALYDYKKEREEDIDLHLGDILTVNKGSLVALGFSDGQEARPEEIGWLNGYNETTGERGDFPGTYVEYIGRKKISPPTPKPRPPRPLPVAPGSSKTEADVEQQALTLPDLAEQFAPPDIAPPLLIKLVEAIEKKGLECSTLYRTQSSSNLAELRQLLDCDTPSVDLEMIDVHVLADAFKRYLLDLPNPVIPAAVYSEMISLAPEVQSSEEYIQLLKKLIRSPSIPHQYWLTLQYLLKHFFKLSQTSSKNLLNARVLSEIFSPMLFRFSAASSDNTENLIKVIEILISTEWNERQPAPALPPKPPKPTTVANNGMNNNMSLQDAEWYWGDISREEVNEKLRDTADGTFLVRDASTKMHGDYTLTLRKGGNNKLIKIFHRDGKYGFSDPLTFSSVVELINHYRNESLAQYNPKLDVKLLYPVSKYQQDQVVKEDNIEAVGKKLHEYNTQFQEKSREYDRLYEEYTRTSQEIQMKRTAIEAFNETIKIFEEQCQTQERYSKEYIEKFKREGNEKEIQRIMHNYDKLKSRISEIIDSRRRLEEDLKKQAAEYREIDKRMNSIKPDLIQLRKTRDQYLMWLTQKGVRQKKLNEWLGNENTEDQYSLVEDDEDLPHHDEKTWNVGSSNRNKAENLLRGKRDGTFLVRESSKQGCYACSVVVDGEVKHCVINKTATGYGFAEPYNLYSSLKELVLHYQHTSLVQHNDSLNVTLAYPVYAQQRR

| Structure (SMILES) | IC50 [nM] |
| --- | --- |
| Cc1cc([C@@H](C)Oc2ccc(Cl)nc2C(N)=O)c2oc(-c3cnn(C(F)F)c3)c(C)c(=O)c2c1 [Example 58A, 6-Chloro-3-[(1R)-1-[2-[1-(difluoromethyl)pyrazol-4-yl]-3,6-dimethyl-4-oxo-chromen-8-yl]ethoxy]pyridine-2-carboxamide] | < 500 |
| Cc1cc([C@@H](C)Oc2ccc(Cl)nc2S(N)(=O)=O)c2oc(-c3cnc4c(c3)OCO4)c(C)c(=O)c2c1 [Example 15A, 6-Chloro-3-[(1R)-1-[2-([1,3]dioxolo[4,5-b]pyridin-6-yl)-3,6-dimethyl-4-oxo-chromen-8-yl]ethoxy]pyridine-2-sulfonamide] | < 500 |
| Cc1cc([C@@H](C)Oc2ccc(Cl)nc2C(N)=O)c2oc(-c3ccc4nn(C)c(C)c4c3)c(C)c(=O)c2c1 [Example 50C, 6-Chloro-3-[(1R)-1-[2-(2,3-dimethylindazol-5-yl)-3,6-dimethyl-4-oxo-chromen-8-yl]ethoxy]pyridine-2-carboxamide] | < 500 |
| Cc1cc([C@@H](C)Oc2cccnc2-c2ccccc2F)c2oc(-c3cc[nH]c(=O)c3)c(C)c(=O)c2c1 [Example 29A, 4-[8-[(1R)-1-[[2-(2-Fluorophenyl)-3-pyridyl]oxy]ethyl]-3,6-dimethyl-4-oxo-chromen-2-yl]-1H-pyridin-2-one] | < 500 |
| Cc1cc([C@@H](C)Oc2ccc(Cl)nc2C(N)=O)c2oc(-c3cnn4c3COCC4)c(C)c(=O)c2c1 [Example 40A, 6-Chloro-3-[(1R)-1-[2-(6,7-dihydro-4H-pyrazolo[5,1-c][1,4]oxazin-3-yl)-3,6-dimethyl-4-oxo-chromen-8-yl]ethoxy]pyridine-2-carboxamide] | < 500 |
| Cc1cc([C@@H](C)Oc2ccc(Cl)nc2C(N)=O)c2oc(C3CC3)c(C)c(=O)c2c1 [Example 63A, 6-Chloro-3-[(1R)-1-(2-cyclopropyl-3,6-dimethyl-4-oxo-chromen-8-yl)ethoxy]pyridine-2-carboxamide] | < 500 |
| Cc1cc([C@@H](C)Oc2ccc(Cl)nc2C(N)=O)c2oc(-c3ccc4cncn4c3)c(C)c(=O)c2c1 [Example 43C, 6-Chloro-3-[(1R)-1-(2-imidazo[1,5-a]pyridin-6-yl-3,6-dimethyl-4-oxo-chromen-8-yl)ethoxy]pyridine-2-carboxamide] | < 500 |
| Cc1cc([C@@H](C)Oc2ccc(Cl)nc2C(N)=O)c2oc(-c3cnc4c(c3)OCO4)c(C)c(=O)c2c1 [Example 59A, 6-Chloro-3-[(1R)-1-[2-([1,3]dioxolo[4,5-b]pyridin-6-yl)-3,6-dimethyl-4-oxo-chromen-8-yl]ethoxy]pyridine-2-carboxamide] | < 500 |
| Cc1cc([C@@H](C)Oc2ccc(Cl)nc2S(N)(=O)=O)c2oc(-c3cnn(C)c3)c(C)c(=O)c2c1 [Example 14A, 6-Chloro-3-[(1R)-1-[3,6-dimethyl-2-(1-methylpyrazol-4-yl)-4-oxo-chromen-8-yl]ethoxy]pyridine-2-sulfonamide] | < 500 |

More lines, now with the values ahead:

| IC50 [nM] | Structure (SMILES) |
| --- | --- |
| < 500 | Cc1cc([C@@H](C)Oc2ccccc2S(N)(=O)=O)c2oc(-c3ccccc3)c(C)c(=O)c2c1 [Example 102C, 2-[(1R)-1-(3,6-Dimethyl-4-oxo-2-phenyl-chromen-8-yl)ethoxy]benzenesulfonamide] |
| < 500 | Cc1cc([C@@H](C)Oc2ccc(F)cc2S(N)(=O)=O)c2oc(-c3cnc4ccoc4c3)c(C)c(=O)c2c1 [Example 106C, 5-Fluoro-2-[(1R)-1-(2-furo[3,2-b]pyridin-6-yl-3,6-dimethyl-4-oxo-chromen-8-yl)ethoxy]benzenesulfonamide] |
| < 500 | Cc1cc([C@@H](C)Oc2ccc(Cl)cc2S(N)(=O)=O)c2oc(-c3cnc4ccoc4c3)c(C)c(=O)c2c1 [Example 100C, 5-Chloro-2-[(1R)-1-(2-furo[3,2-b]pyridin-6-yl-3,6-dimethyl-4-oxo-chromen-8-yl)ethoxy]benzenesulfonamide] |
| < 500 | Cc1cc([C@@H](C)Oc2ccc(Cl)nc2C)c2oc(-c3cnn(CCO)c3)c(C)c(=O)c2c1 [Example 72C, 8-[(1R)-1-[(6-Chloro-2-methyl-3-pyridyl)oxy]ethyl]-2-[1-(2-hydroxyethyl)pyrazol-4-yl]-3,6-dimethyl-chromen-4-one] |
| < 500 | CCc1nc2ccc(-c3oc4c([C@@H](C)Oc5ccc(Cl)nc5C(N)=O)cc(C)cc4c(=O)c3C)cc2o1 [Example 84C, 6-Chloro-3-[(1R)-1-[2-(2-ethyl-1,3-benzoxazol-6-yl)-3,6-dimethyl-4-oxo-chromen-8-yl]ethoxy]pyridine-2-carboxamide] |
| < 500 | CCc1nc2ccc(-c3oc4c([C@@H](C)Oc5ccc(Cl)nc5C(N)=O)cc(C)cc4c(=O)c3C)cc2s1 [Example 83C, 6-Chloro-3-[(1R)-1-[2-(2-ethyl-1,3-benzothiazol-6-yl)-3,6-dimethyl-4-oxo-chromen-8-yl]ethoxy]pyridine-2-carboxamide] |
